Data on one compound can be found in US20150065709A1, “Aminoquinazoline Derivative And Use Thereof In Preparing Anti-Malignant Tumor Medicament” (METABOMICS, INC, priority 2012, published 2015).

Each structure is given as a SMILES string.

One test deals with EGFR^L858R (Homo sapiens, UniProt P00533, L858R). The experiment in a line: Caliper Mobility Shift Assay, mutant EGFR kinase. The format is biochemical. To be noted: read-out: Inhibition of Kinase Activity (IC50, nM) EGFR^L858R.
The next test has as its target EGFR^T790M (Homo sapiens, UniProt P00533, T790M). The experiment in a line: Caliper Mobility Shift Assay, mutant EGFR kinase. The format is biochemical. To be noted: read-out: Inhibition of Kinase Activity (IC50, nM) EGFR^T790M.
Another test relates to DU145. The experiment in a line: Inhibition of tumor cells, WST method. The test is classed as cell-based. The note with it: Homo sapiens, DU-145, Prostate. The method, then: (§1) (1) Compounds: in vitro studies the test compounds was dissolved in 100% DMSO and diluted until the final concentration of DMSO was 0.1%. The 0.1% (v/v) DMSO was added into culture medium as solvent control. 9 concentration gradients were tested and each gradient was repeated twice. (2) Tumor cell lines: the tumor cell lines were cultivated in RPMI10 culture medium containing 10% fetal calf serum in incubator at 37° C. in a 5% CO2 air incubator. The tested tumor cell lines were: BT474, MDA-MB-231, SK-Br-3, A431, H292, H1975, HCC827, A549, H1650 and H1734. (3) MTS method: cells were seeded into 96-well plate to give a density of about 3000 cells per well, and incubated overnight in a humidified incubator at 37° C. In the next day, the test compounds were added to the wells and further incubated for 72 hours. The cell activity was detected using MTS. IC50 was calculated (the concentration of a compound that is required for 50% inhibition of the cell growth versus the DMSO control group, using nonlinear regression analysis of software GraphPad Prism). […] In a 96-well plate, each test compound was tested at 9 dosage concentrations and each dosage was made in triplicate. Samples were added in 100 μL/well. Cell control and negative control wells contained diluents instead of compounds. Except the negative control well, 100 μL cell suspension of complete medium was added into each test well, wherein corresponding cell numbers were included to assure that the cells in cell control well just cover the bottom of the well as the required incubation time was reached. The plate was incubated in a CO2 incubator at 37° C. for 48 hours. The liquid in test wells was removed by pipetting. 100 μL CCK-8 (Cell counting Kit-8, purchased from DOJINDO Molecular Technologies) detection liquid (containing 10% CCK-8, 5% FBS corresponding medium) was added into each test well, then the plate was incubated in a CO2 incubator under at 37° C. for 3 hours. OD value was detected by ELIASA at A450 nm. Cell viability percentage (%)=(O.D. test compound-O.D. blank)/(O.D. control-O.D. blank)×100. Mean value was calculated for each 3 repeated wells, and IC50 was calculated using nonlinear regression (fitted curve) data analysis method.
(§2) Parts of test results of compound Ie listed in the table 3 and all of the test results listed in the table 4 were obtained by WST method.

Another test relates to NUGC-3. In words: Inhibition of tumor cells, WST method. The format is cell-based. The note with it: Homo sapiens, Stomach. The procedure: as §1, §2
The test system of the next test is NCI-N87. The experiment in a line: Inhibition of tumor cells, WST method. To be noted: Homo sapiens, Stomach. The format is cell-based. The procedure: as §1, §2
In a further test the test system is NCI-H358. In words: Inhibition of tumor cells, WST method. The format is cell-based. The note with it: Homo sapiens, Lung. The method, then: as §1, §2
Another test has as its system H1650. The experiment in a line: Inhibition of tumor cells, WST method. To be noted: Homo sapiens, NCI-H1650, 48 hours. The format is cell-based. The procedure: as §1, §2
In a further test the test system is CW-2. The experiment in a line: Inhibition of tumor cells, WST method. The test is classed as cell-based. The note with it: Homo sapiens, Colon. The method, then:
as §1, §2

Another test relates to NCI-H2126. The experiment in a line: Inhibition of tumor cells, WST method. The note with it: Homo sapiens, Lung. The format is cell-based. The procedure:
as §1, §2

Another test deals with ACHN. In words: Inhibition of tumor cells, WST method. The format is cell-based. To be noted: Homo sapiens, Kidney. The procedure:
as §1, §2

Another test deals with Calu-3. In words: Inhibition of tumor cells, WST method. The format is cell-based. To be noted: Homo sapiens, Lung. The procedure: as §1, §2
The test system of a further test is MDA-MB-468. The experiment in a line: Inhibition of tumor cells, WST method. The format is cell-based. To be noted: Homo sapiens, Breast. The procedure: as §1, §2
The test system of a further test is BT474. The experiment in a line: Inhibition of tumor cells, WST method. The note with it: Homo sapiens, BT-474, 48 hours. The format is cell-based. The procedure:
as §1, §2

The subject of another test is A549. In words: Inhibition of tumor cells, WST method. The format is cell-based. To be noted: Homo sapiens, 48 hours. The method, then:
as §1, §2

The test system of a further test is H1975. In words: Inhibition of tumor cells, WST method. To be noted: Homo sapiens, NCI-H1975, 48 hours. The test is classed as cell-based. The procedure: as §1, §2
The subject of a further test is ZR-75-30. In words: Inhibition of tumor cells, WST method. The format is cell-based. To be noted: Homo sapiens, Breast. The procedure:
as §1, §2

The test system of a further test is A431. The experiment in a line: Inhibition of tumor cells, WST method. To be noted: Homo sapiens, A-431, 48 hours. The format is cell-based. The method, then: as §1, §2
The subject of another test is SK-Br-3. The experiment in a line: Inhibition of tumor cells, WST method. The test is classed as cell-based. To be noted: Homo sapiens, 48 hours. The procedure:
as §1, §2

Another test concerns C-33A. The experiment in a line: Inhibition of tumor cells, WST method. The test is classed as cell-based. To be noted: Homo sapiens, Uterine Neck. The method, then:
as §1, §2

A further test has as its system H292. In words: Inhibition of tumor cells, WST method. The format is cell-based. The note with it: Homo sapiens, NCI-H292, 48 hours. The procedure:
as §1, §2

The next test concerns FaDu. In words: Inhibition of tumor cells, WST method. The format is cell-based. The note with it: Homo sapiens, Head and Neck. The procedure:
as §1, §2

Another test has as its system CAL27. In words: Inhibition of tumor cells, WST method. The format is cell-based. To be noted: Homo sapiens, CAL-27, Head and Neck. The procedure: as §1, §2
The target of the next test is EGFR (Homo sapiens, UniProt P00533). The experiment in a line: Caliper Mobility Shift Assay, inhibition of EGFR kinase activity. The test is classed as biochemical.
Sequence of EGFR (P00533 25-1210): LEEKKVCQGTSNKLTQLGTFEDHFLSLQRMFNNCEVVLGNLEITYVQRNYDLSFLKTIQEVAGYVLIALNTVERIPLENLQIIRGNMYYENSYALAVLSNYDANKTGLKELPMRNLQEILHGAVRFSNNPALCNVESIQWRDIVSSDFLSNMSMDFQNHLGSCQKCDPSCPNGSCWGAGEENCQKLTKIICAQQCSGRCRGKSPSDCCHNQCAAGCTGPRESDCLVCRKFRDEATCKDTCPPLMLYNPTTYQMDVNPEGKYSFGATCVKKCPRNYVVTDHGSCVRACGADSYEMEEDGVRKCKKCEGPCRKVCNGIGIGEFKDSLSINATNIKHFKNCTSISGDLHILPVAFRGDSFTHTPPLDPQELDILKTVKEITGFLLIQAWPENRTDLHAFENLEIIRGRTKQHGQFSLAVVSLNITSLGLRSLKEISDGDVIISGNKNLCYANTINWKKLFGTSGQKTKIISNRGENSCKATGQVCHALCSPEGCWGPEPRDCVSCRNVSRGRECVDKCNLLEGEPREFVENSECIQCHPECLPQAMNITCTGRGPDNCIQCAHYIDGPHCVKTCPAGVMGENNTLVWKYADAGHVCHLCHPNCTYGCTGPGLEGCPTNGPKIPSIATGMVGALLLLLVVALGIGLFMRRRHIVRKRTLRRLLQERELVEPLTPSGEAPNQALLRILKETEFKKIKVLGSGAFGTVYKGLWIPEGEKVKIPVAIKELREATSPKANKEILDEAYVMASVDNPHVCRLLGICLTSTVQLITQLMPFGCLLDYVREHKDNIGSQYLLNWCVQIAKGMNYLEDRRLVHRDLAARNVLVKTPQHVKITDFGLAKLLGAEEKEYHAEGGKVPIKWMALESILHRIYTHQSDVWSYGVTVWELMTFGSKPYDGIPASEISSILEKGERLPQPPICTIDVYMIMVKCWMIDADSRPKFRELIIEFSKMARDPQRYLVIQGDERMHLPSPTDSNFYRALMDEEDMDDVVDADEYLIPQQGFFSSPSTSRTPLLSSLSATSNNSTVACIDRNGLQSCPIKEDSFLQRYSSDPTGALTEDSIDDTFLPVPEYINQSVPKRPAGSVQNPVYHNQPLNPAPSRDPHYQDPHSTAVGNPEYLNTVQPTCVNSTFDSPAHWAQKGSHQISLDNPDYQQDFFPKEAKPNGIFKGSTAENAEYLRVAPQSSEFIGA

Sequence of EGFR^L858R (P00533 25-1210 L858R): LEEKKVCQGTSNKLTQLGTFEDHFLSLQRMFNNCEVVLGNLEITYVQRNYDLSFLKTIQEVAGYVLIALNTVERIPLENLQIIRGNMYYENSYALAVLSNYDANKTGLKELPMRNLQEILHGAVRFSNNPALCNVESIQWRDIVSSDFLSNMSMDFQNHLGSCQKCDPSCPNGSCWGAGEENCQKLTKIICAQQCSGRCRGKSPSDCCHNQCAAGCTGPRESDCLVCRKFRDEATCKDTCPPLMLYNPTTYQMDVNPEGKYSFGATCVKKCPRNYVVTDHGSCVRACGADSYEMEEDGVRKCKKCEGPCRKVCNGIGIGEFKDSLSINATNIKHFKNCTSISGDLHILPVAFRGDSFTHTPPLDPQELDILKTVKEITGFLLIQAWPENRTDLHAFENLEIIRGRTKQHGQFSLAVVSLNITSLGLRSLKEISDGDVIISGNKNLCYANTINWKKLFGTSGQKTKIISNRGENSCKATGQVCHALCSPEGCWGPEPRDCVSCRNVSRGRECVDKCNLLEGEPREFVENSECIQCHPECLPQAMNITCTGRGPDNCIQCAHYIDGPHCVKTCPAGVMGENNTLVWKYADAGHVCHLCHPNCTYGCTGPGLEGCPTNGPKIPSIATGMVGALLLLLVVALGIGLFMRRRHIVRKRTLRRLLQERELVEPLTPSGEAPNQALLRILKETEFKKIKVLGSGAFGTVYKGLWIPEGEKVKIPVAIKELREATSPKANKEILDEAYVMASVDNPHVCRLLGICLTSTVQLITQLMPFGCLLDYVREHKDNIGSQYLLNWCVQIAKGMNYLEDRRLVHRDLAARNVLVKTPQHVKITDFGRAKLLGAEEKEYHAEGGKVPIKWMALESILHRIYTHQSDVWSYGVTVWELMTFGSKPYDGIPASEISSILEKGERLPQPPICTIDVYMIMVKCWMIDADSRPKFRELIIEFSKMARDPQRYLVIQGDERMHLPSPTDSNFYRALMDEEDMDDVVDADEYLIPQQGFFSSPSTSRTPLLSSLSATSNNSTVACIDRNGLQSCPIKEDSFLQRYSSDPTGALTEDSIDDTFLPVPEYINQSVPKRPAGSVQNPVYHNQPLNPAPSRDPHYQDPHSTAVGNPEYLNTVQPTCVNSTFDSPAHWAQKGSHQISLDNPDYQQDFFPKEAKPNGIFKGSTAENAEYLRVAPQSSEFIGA
Sequence of EGFR^T790M (P00533 25-1210 T790M): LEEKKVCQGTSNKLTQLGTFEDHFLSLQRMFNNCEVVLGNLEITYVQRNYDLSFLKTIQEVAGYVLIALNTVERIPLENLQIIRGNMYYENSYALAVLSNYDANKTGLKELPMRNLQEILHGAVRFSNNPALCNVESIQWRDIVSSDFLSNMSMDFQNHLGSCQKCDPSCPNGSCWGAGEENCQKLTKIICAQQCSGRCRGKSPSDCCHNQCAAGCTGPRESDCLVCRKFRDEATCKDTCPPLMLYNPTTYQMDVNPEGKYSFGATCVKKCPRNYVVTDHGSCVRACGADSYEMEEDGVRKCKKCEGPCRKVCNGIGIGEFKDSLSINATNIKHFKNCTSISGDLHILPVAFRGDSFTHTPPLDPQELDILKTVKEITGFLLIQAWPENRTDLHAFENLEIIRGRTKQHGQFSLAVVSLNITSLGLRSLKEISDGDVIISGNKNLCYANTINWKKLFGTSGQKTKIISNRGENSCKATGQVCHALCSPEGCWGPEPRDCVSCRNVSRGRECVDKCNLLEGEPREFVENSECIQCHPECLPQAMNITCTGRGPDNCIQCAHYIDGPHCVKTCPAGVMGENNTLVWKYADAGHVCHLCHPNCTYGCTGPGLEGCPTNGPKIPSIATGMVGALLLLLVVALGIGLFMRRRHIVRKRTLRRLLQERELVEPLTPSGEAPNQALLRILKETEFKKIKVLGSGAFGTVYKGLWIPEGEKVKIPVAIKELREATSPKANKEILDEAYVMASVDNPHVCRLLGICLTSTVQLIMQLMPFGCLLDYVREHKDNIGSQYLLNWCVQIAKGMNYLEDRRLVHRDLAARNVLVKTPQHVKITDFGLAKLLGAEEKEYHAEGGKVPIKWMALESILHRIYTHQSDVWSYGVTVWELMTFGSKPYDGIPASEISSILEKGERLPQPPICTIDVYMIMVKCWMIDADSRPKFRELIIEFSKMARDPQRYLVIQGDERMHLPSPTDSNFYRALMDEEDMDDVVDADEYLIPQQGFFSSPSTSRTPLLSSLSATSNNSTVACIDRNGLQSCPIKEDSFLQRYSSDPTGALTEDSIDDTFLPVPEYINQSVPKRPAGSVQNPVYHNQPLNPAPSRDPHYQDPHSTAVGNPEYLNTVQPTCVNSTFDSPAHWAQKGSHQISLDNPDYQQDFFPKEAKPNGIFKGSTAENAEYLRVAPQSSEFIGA

With `CN(C)C/C=C/C(=O)Nc1cc2c(Nc3ccc(F)c(Cl)c3)ncnc2cc1OC(F)F` [Compound Ie], the IC50 at EGFR^L858R worked out at 0.65 nM; on EGFR^T790M, 4.6 nM; in the test on DU145, 0.853 µM; in the test with NUGC-3 it was 0.055 µM; with NCI-N87, 0.001 µM; with NCI-H358, 0.195 µM. Besides, the IC50 in the test with H1650 came out at 0.702 µM; in the test on CW-2, 0.036 µM; with NCI-H2126, 1.69 µM; with ACHN, 0.107 µM; in the test with Calu-3 it was 0.022 µM; with MDA-MB-468, 0.076 µM. Moreover, the IC50 turned out to be 0.088 µM in the test on BT474; 0.204 µM in the test with A549; 0.198 µM in the test on H1975; 0.683 µM with ZR-75-30; 1.24 µM with A431; 0.028 µM in the test with SK-Br-3. Further, the 50% inhibitory concentration (IC50) in the test on C-33A was found to be 0.057 µM; with H292 it was 0.181 µM; in the test on FaDu, 0.169 µM; in the test with CAL27, 0.002 µM; on EGFR, 0.4 nM. Moreover, the “inhibitory effect on EGFR kinases relative to Afatinib, Neratinib and Gefitinib” value on EGFR is “over two times”.
